Results taken from patent US8906925B2, “Pyrido[4,3-B]indoles containing rigid moieties” (Medivation Technologies, Inc., priority 2008, dated 2014).

Legend:
[1] = target: histamine receptor H1 (Homo sapiens, UniProt P35367); assay: Histamine H1 radioligand binding ([3H]Pyrilamine); settings: read-out: Histamine Binding (1 μM) H1, percent inhibition of specific binding, 1 μM
Outline: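 Values are percent inhibition of specific [3H]pyrilamine (1.2 nM) binding with compounds at ≤1 μM (1% DMSO vehicle); 180 min incubation at 25 °C, pH 7.4 Tris buffer, on CHO-expressed human H1 receptor; 1 μM pyrilamine defined nonspecific binding, bound ligand counted after filtration.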

[2] = target: T1, human recombinant histamine H2 receptor (Homo sapiens, UniProt P25021); assay: Histamine H2 radioligand binding ([125I]Aminopotentidine); settings: read-out: Histamine Binding (1 μM) H2, percent inhibition of specific binding, 1 μM
T1 construct: expressed in transfected cells; host or cells: Chinese hamster ovary (CHO) K1 cells
T1 sequence (P25021 whole entry): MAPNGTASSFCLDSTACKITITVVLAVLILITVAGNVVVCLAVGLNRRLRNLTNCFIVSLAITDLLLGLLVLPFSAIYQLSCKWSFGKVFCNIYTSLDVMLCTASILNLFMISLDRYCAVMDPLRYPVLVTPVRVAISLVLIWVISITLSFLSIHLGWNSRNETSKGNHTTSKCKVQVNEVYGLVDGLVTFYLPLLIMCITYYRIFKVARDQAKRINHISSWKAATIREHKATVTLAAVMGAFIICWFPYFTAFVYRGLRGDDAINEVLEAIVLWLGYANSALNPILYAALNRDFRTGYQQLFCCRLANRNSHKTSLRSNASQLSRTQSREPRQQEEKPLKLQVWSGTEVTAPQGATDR
Method: To evaluate in radioligand binding assays the activity of compounds of the invention, human recombinant histamine H2 receptor expressed in Chinese hamster ovary (CHO) K1 cells (Ruat, M., Proc. Natl. Acad. Sci. USA. 87(5):1658, 1990) in a 50 mM Phosphate buffer, pH 7.4 was used. Compounds of the invention were incubated with 0.1 nM [^125I]Aminopotentidine for 120 min. at 25° C. Non-specific binding was estimated in the presence of 3 μM Tiotidine. Receptor proteins were filtered and washed, the filters were then counted to determine [^125I]Aminopotentidine specifically bound.

[3] = target: human dopamine D2L receptor (Homo sapiens, UniProt P14416); assay: Dopamine D2L radioligand binding ([3H]Spiperone); settings: percent inhibition of specific binding; compound at 1 μM; read-out: Inhibition of ligand binding, Dopamine D2L
Sequence of human dopamine D2L receptor (P14416 whole entry): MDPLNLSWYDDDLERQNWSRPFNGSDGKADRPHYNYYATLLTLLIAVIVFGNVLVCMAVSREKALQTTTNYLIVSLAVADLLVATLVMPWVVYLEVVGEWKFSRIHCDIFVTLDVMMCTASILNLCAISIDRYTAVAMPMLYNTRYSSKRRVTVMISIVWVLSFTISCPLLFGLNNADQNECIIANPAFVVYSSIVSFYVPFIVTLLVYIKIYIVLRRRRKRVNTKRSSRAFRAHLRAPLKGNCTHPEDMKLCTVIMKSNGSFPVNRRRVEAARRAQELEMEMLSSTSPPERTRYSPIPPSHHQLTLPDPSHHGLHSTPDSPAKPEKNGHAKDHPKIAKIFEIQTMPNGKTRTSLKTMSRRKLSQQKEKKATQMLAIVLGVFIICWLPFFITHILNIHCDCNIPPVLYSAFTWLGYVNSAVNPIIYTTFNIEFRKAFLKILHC
Description: Non-specific binding was estimated in the presence of […] Haloperidol. Receptor proteins were filtered and washed, the filters were then counted to determine [^3H]Spiperone specifically bound. […] Biochemical assay results are presented as the percent inhibition of specific binding in Table 9.

[4] = target: T2, human recombinant serotonin (5-Hydroxytryptamine) 5-HT2A receptor (Homo sapiens, UniProt P28223); assay: Serotonin 5-HT2A radioligand binding ([3H]Ketanserin); settings: read-out: Inhibition of ligand binding, Serotonin 5-HT2A (percent inhibition of specific binding), compound at 1 μM
T2 construct: expressed in transfected cells; host or cells: Chinese hamster ovary (CHO-K1) cells
T2 sequence (P28223 whole entry): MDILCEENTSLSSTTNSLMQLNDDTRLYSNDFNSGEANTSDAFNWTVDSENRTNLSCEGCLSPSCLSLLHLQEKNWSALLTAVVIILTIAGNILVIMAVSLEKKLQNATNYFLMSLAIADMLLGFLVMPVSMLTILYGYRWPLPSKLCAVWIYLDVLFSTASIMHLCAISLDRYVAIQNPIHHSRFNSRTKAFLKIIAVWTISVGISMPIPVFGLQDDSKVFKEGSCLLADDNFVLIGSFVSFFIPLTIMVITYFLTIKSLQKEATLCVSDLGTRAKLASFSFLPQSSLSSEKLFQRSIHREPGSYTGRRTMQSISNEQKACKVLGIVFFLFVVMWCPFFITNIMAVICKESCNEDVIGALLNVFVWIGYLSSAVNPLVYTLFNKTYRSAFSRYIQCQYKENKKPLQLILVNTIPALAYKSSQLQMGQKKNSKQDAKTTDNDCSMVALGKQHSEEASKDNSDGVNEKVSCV
Method: Compounds of the invention were incubated with 0.5 nM [^3H]Ketanserin for 60 min. at 25° C. Non-specific binding was estimated in the presence of 1 μM Mianserin. Receptor proteins were filtered and washed, the filters were then counted to determine [^3H]Ketanserin specifically bound.

[5] = target: T3, human recombinant serotonin (5-Hydroxytryptamine) 5-HT2C receptor (Homo sapiens, UniProt P28335); assay: Serotonin 5-HT2C radioligand binding ([3H]Mesulergine); settings: compound at 1 μM; read-out: Inhibition of ligand binding, Serotonin 5-HT2C (percent inhibition of specific binding)
T3 construct: expressed in transfected cells; host or cells: Chinese hamster ovary (CHO-K1) cells
T3 sequence (P28335 33-458): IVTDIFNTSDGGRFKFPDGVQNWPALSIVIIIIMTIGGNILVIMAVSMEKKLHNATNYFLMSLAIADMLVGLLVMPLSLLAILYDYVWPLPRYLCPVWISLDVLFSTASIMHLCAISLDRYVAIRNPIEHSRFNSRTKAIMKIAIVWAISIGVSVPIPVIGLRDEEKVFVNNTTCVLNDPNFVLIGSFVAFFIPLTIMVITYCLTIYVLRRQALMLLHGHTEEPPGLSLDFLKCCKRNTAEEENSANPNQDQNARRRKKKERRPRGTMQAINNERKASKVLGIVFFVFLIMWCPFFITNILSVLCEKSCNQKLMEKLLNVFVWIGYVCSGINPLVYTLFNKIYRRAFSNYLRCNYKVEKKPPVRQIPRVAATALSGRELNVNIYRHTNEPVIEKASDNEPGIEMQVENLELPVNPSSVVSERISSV
Outline: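 Compounds tested at 1 μM or lower (1% DMSO vehicle) for displacement of 1 nM [3H]Mesulergine over 60 min at 25° C. Specific binding determined by filtration counting, with 1 μM Mianserin defining non-specific binding; values are percent inhibition.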

[6] = target: T4, human recombinant serotonin (5-Hydroxytryptamine) 5-HT6 receptor (Homo sapiens, UniProt P50406); assay: Serotonin 5-HT6 radioligand binding ([3H]LSD); settings: compound at 1 μM; read-out: Inhibition of ligand binding, Serotonin 5-HT6 (percent inhibition of specific binding)
T4 construct: expressed in transfected cells; host or cells: human HeLa cells
T4 sequence (P50406 whole entry): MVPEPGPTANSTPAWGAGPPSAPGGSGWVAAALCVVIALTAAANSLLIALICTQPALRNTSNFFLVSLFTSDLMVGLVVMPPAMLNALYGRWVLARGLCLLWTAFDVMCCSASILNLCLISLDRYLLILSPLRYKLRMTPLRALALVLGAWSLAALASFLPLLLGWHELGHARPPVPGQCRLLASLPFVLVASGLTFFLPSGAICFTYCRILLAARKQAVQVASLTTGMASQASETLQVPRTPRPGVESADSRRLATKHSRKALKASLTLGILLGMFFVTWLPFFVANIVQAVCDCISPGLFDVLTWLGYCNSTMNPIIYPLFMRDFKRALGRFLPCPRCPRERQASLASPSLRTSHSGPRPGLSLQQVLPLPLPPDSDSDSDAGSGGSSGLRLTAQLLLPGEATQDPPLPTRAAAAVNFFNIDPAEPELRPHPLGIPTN
Method: Compounds of the invention were incubated with 1.5 nM [3H]Lysergic acid diethylamide (LSD) for 120 min. at 37° C. […] Receptor proteins were filtered and washed, the filters were then counted to determine [3H]LSD specifically bound. Compounds were screened at 1 μM or lower, using 1% DMSO as vehicle. Biochemical assay results are presented as the percent inhibition of specific binding in Table 10.

[7] = target: human recombinant serotonin (5-Hydroxytryptamine) 5-HT7 receptor (Homo sapiens, UniProt P34969); assay: Serotonin 5-HT7 radioligand binding ([3H]LSD); settings: compound at 1 μM; read-out: Inhibition of ligand binding, Serotonin 5-HT7 (percent inhibition of specific binding)
Sequence of human recombinant serotonin (5-Hydroxytryptamine) 5-HT7 receptor (P34969 whole entry): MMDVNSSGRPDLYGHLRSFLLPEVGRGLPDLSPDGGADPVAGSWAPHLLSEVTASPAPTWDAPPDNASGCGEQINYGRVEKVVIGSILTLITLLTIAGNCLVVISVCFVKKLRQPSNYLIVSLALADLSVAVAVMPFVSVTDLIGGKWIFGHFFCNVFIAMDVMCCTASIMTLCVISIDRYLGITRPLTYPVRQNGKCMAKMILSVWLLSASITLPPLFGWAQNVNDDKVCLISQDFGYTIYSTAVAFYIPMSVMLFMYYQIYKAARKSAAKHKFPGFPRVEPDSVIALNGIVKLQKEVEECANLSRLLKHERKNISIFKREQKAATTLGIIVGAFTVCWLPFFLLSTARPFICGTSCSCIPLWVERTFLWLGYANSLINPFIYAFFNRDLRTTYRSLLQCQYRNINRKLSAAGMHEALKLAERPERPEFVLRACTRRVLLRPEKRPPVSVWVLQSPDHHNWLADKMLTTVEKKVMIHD
Description: Receptor proteins were filtered and washed, the filters were then counted to determine [^3H]LSD specifically bound.

Sequence of histamine receptor H1 (P35367 whole entry): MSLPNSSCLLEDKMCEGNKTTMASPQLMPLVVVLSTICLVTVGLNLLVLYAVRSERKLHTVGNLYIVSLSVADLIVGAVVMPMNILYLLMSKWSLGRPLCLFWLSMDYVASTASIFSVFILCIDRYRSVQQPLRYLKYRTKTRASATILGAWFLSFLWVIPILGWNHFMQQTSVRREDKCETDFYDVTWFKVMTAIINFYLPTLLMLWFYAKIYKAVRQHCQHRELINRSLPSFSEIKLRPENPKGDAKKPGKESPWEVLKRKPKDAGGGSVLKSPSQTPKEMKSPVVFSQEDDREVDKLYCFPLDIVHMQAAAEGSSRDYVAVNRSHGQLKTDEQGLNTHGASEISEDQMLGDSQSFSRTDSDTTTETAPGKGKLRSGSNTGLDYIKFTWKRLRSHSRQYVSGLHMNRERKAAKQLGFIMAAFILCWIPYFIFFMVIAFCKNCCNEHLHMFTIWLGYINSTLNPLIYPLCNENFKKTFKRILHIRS

SMILES | inhibition at 1 µM [1] | inhibition at 1 µM [2] | inhibition at 1 µM [3] | inhibition at 1 µM [4] | inhibition at 1 µM [5] | inhibition at 1 µM [6] | inhibition at 1 µM [7]
C/C(=C\n1c2c(c3cc(Cl)ccc31)CN(C)CC2)c1cccnc1 [Compound 86, (E)-8-chloro-2,3,4,5-tetrahydro-2-methyl-5-(2-(pyridin-3-yl)prop-1-enyl)-1H-pyrido[4,3-b]indole] | 72% | 54% | 40% | 95% | 94% | 77% | 93%
C/C(=C\n1c2c(c3cc(Cl)ccc31)CN(C)CC2)c1ccc(F)c(F)c1 [Compound 98, (E)-8-chloro-5-(2-(3,4-difluorophenyl)prop-1-enyl)-2,3,4,5-tetrahydro-2-methyl-1H-pyrido[4,3-b]indole] | 53% | 99% | 78% | 95% | 100% | 100% | 94%
C/C(=C\n1c2c(c3cc(Cl)ccc31)CN(C)CC2)c1ccc(Cl)c(Cl)c1 [Compound 103, (E)-8-chloro-5-(2-(3,4-dichlorophenyl)prop-1-enyl)-2,3,4,5-tetrahydro-2-methyl-1H-pyrido[4,3-b]indole] | 81% | 101% | 49% | 101% | 98% | 89% | 90%
CN1CCc2c(c3cc(F)ccc3n2CC(C)(O)c2ccncc2)C1 (centres unmarked) [Compound 181, 1-(8-fluoro-2-methyl-3,4-dihydro-1H-pyrido[4,3-b]indol-5(2H)-yl)-2-(pyridin-4-yl)propan-2-ol] | 0% | 25% | 8% | 77% | 80% | 32% | 30%
CN1CCc2c(c3cc(Cl)ccc3n2CC(O)c2ccncc2)C1 (centres unmarked) [Compound 183, 2-(8-chloro-2-methyl-3,4-dihydro-1H-pyrido[4,3-b]indol-5(2H)-vyl)-1-(pyridin-4-yl)ethanol] | 91% | 47% | 15% | 82% | 78% | 72% | 74%
CN1CCc2c(c3ccc(Cl)cc3n2CC(C)(O)c2ccncc2)C1 (centres unmarked) [Compound 184, 1-(7-chloro-2-methyl-3,4-dihydro-1H-pyrido[4,3-b]indol-5(2H)-yl)-2-(pyridin-4-yl)propan-2-ol] | 23% | 57% | 1% | 82% | 65% | 31% | 48%
CN1CCc2c(c3cccc(F)c3n2CC(C)(O)c2ccncc2)C1 (centres unmarked) [Compound 185, 1-(6-fluoro-2-methyl-3,4-dihydro-1H-pyrido[4,3-b]indol-5(2H)-yl)-2-(pyridin-4-yl)propan-2-ol] | 8% | 29% | -1% | 82% | 83% | 26% | 41%
CN1CCc2c(c3ccccc3n2CC(C)(O)c2ccncc2)C1 (centres unmarked) [Compound 186, 1-(2-methyl-3,4-dihydro-1H-pyrido[4,3-b]indol-5(2H)-yl)-2-(pyridin-4-yl)propan-2-ol] | 1% | 22% | 3% | 74% | 72% | 12% | 37%
Cc1ccc2c(c1)c1c(n2CC(C)(O)c2ccc(O)cc2)CCN(C)C1 (centres unmarked) [Compound 187, 4-(1-(2,8-dimethyl-3,4-dihydro-1H-pyrido[4,3-b]indol-5(2H)-yl)-2-hydroxypropan-2-yl)phenol] | 36% | 57% | 35% | 102% | 99% | 98% | 94%
COc1ccc2c(c1)c1c(n2CC(C)(O)c2ccncc2)CCN(C)C1 (centres unmarked) [Compound 188, 1-(8-methoxy-2-methyl-3,4-dihydro-1H-pyrido[4,3-b]indol-5(2H)-yl)-2-(pyridin-4-yl)propan-2-ol] | 8% | 13% | -5% | 50% | 66% | 9% | 45%
CN1CCc2c(c3cc(Cl)c(Cl)cc3n2CC(C)(O)c2ccncc2)C1 (centres unmarked) [Compound 189, 1-(7,8-dichloro-2-methyl-3,4-dihydro-1H-pyrido[4,3-b]indol-5(2H)-yl)-2-(pyridin-4-yl)propan-2-ol] | 77% | 85% | 2% | 96% | 91% | 87% | 82%
CN1CCc2c(c3c(Cl)c(Cl)ccc3n2CC(C)(O)c2ccncc2)C1 (centres unmarked) [Compound 190, 1-(8,9-dichloro-2-methyl-3,4-dihydro-1H-pyrido[4,3-b]indol-5(2H)-yl)-2-(pyridin-4-yl)propan-2-ol] | -11% | 9% | -15% | 71% | 52% | 31% | 47%
COc1ccc(/C(C)=C/n2c3c(c4cc(C)ccc42)CN(C)CC3)cc1F [Compound 214, (E)-5-(2-(3-fluoro-4-methoxyphenyl)prop-1-enyl)-2,8-dimethyl-2,3,4,5-tetrahydro-1H-pyrido[4,3-b]indole] | 23% | 100% | 83% | 93% | 95% | 94% | 97%
C/C(=C\n1c2c(c3cc(Cl)ccc31)CN(C)CC2)c1cc(Cl)cc(Cl)c1 [Compound 215, (E)-8-chloro-5-(2-(3,5-dichlorophenyl)prop-1-enyl)-2-methyl-2,3,4,5-tetrahydro-1H-pyrido[4,3-b]indole] | 89% | 98% | 36% | 97% | 96% | 97% | 90%
